Reference: ChEMBL document CHEMBL1909046, “DrugMatrix in vitro pharmacology data”

How the values were obtained:
Melanocortin receptor 5 = Melanocortin receptor 5 (Homo sapiens, UniProt P33032); assay type: cell membranes, HEK293, Membrane; conditions: hek293; further: in other assays of this panel Not Active means under 50% inhibition at 10 µM
[1] = target: Mitogen-activated protein kinase 3 (Homo sapiens, UniProt P27361); assay: DRUGMATRIX: Protein Serine/Threonine Kinase, ERK1 enzyme inhibition (substrate: Myelin Basic Protein); design: species or system Escherichia coli; conditions: Not Active = under 50% inhibition at 10 µM
[2] = target: T1, Muscarinic acetylcholine receptor M5 (Homo sapiens, UniProt P08912); assay type: cell membranes, Membrane; conditions: cho-k1; further: in other assays of this panel Not Active means under 50% inhibition at 10 µM
T1 sequence (P08912 whole entry): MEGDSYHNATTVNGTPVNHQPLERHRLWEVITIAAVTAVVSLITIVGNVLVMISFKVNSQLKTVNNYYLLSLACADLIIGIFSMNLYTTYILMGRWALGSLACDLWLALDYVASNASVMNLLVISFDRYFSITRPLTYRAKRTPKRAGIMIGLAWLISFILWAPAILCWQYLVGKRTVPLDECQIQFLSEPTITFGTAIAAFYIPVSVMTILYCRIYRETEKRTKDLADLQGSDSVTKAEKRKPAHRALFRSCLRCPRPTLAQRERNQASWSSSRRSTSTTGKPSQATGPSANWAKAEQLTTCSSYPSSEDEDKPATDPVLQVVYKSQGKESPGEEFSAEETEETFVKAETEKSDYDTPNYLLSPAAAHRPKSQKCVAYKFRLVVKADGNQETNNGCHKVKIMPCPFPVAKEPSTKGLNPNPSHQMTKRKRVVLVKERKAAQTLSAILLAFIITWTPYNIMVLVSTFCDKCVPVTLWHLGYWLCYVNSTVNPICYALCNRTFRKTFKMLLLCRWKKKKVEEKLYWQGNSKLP

Adenosine receptor A3 = target: T2, Adenosine receptor A3 (Homo sapiens, UniProt P0DMS8); assay type: cell membranes, CHO-K1, Membrane; conditions: cho-k1;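 further: radioligand binding assay with AB-MECA serving as the labeled ligand; in other assays of this panel Not Active means under 50% inhibition at 10 µM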
T2 sequence (P0DMS8 whole entry): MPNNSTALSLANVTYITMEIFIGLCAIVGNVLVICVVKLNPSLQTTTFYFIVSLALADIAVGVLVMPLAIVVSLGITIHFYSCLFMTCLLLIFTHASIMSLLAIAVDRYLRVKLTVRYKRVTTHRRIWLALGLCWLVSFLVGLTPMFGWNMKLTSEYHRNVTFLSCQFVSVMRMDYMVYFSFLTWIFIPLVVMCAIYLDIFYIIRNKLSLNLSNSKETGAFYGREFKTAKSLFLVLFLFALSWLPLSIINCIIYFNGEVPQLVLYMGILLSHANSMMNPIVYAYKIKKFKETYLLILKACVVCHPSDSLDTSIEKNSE

[3] = target: T3, Neuropeptide Y receptor type 1 (Homo sapiens, UniProt P25929); assay type: cell membranes, Membrane; conditions: sk-n-mc; further: in other assays of this panel Not Active means under 50% inhibition at 10 µM
T3 sequence (P25929 whole entry): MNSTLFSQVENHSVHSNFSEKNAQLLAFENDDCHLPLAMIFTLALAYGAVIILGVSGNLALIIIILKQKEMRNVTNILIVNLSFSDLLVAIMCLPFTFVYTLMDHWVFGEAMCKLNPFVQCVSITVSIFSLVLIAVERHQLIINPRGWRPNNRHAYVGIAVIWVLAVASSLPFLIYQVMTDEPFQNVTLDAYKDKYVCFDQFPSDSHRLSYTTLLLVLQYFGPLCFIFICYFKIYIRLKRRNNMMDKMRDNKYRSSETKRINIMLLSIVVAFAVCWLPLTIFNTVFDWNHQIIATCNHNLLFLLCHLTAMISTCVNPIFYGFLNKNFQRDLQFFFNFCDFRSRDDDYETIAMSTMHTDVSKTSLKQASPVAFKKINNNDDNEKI

[4] = target: T4, Receptor-type tyrosine-protein phosphatase C (Homo sapiens, UniProt P08575); design: species or system Escherichia coli
T4 sequence (P08575 whole entry): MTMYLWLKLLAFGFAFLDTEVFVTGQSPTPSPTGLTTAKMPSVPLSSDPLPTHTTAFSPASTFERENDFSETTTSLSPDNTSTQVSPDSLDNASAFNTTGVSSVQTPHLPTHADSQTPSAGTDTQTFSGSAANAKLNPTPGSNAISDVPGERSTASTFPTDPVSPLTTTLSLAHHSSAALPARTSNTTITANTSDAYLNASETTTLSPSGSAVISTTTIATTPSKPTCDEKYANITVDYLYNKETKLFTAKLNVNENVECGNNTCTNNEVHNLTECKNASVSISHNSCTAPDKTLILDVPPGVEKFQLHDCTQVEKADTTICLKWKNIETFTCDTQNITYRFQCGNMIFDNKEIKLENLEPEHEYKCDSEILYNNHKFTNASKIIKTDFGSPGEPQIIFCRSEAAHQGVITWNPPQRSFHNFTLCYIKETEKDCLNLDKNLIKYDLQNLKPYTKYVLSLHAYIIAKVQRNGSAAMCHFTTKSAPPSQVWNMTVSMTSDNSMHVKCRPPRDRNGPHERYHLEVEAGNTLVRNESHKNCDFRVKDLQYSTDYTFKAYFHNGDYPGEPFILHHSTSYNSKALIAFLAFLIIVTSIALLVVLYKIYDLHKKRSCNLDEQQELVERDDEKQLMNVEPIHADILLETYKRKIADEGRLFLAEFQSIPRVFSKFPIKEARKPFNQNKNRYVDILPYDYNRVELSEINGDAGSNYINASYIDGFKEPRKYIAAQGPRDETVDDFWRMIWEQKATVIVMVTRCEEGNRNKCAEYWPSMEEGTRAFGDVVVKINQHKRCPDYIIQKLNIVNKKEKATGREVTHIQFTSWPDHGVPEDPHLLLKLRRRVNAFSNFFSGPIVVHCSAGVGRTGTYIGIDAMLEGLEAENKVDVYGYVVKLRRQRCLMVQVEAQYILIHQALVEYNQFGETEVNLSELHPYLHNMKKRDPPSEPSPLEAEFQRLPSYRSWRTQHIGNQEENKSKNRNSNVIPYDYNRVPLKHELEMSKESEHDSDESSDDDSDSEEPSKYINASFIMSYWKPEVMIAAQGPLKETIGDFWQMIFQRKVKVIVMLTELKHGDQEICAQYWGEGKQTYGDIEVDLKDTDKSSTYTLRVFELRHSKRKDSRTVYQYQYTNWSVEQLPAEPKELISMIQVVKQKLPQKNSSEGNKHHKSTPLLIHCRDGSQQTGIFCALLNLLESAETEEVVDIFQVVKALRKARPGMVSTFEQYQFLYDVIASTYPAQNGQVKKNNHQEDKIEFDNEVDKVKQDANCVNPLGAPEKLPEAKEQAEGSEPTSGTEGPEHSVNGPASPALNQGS

[5] = target: Delta-type opioid receptor (Homo sapiens, UniProt P41143); assay type: cell membranes, HEK293, Membrane; conditions: hek293; further: in other assays of this panel Not Active means under 50% inhibition at 10 µM
[6] = DRUGMATRIX: ATPase, Na+/K+ enzyme inhibition (substrate: ATP); assay type: tissue-based, Sus scrofa, Heart; conditions: Not Active = under 50% inhibition at 10 µM

Delta-type opioid receptor, sequence (P41143 whole entry): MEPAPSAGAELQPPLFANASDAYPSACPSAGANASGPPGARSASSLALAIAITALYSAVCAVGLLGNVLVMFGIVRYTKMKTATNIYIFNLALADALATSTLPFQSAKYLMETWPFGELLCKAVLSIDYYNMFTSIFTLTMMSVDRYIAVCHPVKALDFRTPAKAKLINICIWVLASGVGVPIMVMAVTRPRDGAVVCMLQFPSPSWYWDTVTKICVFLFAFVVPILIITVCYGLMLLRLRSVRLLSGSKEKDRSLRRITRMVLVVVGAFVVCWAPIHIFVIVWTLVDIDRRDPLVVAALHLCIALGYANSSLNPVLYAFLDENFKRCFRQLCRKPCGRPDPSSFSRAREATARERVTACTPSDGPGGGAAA
Melanocortin receptor 5, sequence (P33032 whole entry): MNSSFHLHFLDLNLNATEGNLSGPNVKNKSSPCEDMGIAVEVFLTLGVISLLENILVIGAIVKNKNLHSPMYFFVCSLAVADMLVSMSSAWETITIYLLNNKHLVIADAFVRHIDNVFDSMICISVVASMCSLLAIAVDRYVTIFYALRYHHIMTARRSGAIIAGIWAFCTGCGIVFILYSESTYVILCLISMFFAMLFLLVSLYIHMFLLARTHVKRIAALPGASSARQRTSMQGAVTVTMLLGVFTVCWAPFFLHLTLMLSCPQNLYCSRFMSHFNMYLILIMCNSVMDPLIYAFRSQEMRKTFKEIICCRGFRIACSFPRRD
Mitogen-activated protein kinase 3, sequence (P27361 whole entry): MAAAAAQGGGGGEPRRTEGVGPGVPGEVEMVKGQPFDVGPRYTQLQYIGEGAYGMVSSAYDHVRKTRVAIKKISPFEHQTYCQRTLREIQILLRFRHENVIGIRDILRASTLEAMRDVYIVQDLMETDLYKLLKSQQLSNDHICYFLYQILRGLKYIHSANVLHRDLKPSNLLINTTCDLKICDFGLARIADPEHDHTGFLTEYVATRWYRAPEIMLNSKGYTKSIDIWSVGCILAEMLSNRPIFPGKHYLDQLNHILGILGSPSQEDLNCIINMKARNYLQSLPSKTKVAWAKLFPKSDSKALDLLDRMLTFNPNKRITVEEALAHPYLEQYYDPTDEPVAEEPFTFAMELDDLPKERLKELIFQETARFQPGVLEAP

CNC(=C[N+](=O)[O-])NCCSCc1csc(CN(C)C)n1 [NIZATIDINE]
Not Active: IC50 (Melanocortin receptor 5) | IC50 [1] | IC50 [2] | IC50 (Adenosine receptor A3) | IC50 [3] | IC50 [4] | IC50 [5] | IC50 [6] | Ki [6]

C[C@]12C/C(=C/O)C(=O)C[C@@H]1CC[C@@H]1[C@@H]2CC[C@@]2(C)[C@H]1CC[C@]2(C)O [OXYMETHOLONE]
Not Active: IC50 (Melanocortin receptor 5) | IC50 [1] | IC50 [2] | IC50 (Adenosine receptor A3) | IC50 [3] | IC50 [4] | IC50 [5] | IC50 [6] | Ki [6]

CC(C)(CO)C(O)C(=O)NCCCO (centres undefined) [PANTHENOL]
Not Active: IC50 (Melanocortin receptor 5) | IC50 [1] | IC50 [2] | IC50 (Adenosine receptor A3) | IC50 [3] | IC50 [4] | IC50 [5] | IC50 [6] | Ki [6]

COc1ccc(Cc2nccc3cc(OC)c(OC)cc23)cc1OC [PAPAVERINE]
Not Active: IC50 (Melanocortin receptor 5) | IC50 [1] | IC50 [2] | IC50 (Adenosine receptor A3) | IC50 [3] | IC50 [4] | IC50 [5] | IC50 [6] | Ki [6]

OCCN1CCN(CCCN2c3ccccc3Sc3ccc(Cl)cc32)CC1 [PERPHENAZINE]
Not Active: IC50 (Melanocortin receptor 5) | IC50 [1] | IC50 [2] | IC50 (Adenosine receptor A3) | IC50 [3] | IC50 [4] | IC50 [5] | IC50 [6] | Ki [6]

CCCCC1C(=O)N(c2ccccc2)N(c2ccccc2)C1=O [PHENYLBUTAZONE]
Not Active: IC50 (Melanocortin receptor 5) | IC50 [1] | IC50 [2] | IC50 (Adenosine receptor A3) | IC50 [3] | IC50 [4] | IC50 [5] | IC50 [6] | Ki [6]

Cc1cccc(Nc2cc(Cl)nc(SCC(=O)O)n2)c1C [PIRINIXIC ACID]
Not Active: IC50 (Melanocortin receptor 5) | IC50 [1] | IC50 [2] | IC50 (Adenosine receptor A3) | IC50 [3] | IC50 [4] | IC50 [5] | IC50 [6] | Ki [6]

CC[C@H](C)C(=O)O[C@H]1C[C@H](O)C=C2C=C[C@H](C)[C@H](CC[C@@H](O)C[C@@H](O)CC(=O)O)[C@H]21 [PRAVASTATIN]
Not Active: IC50 (Melanocortin receptor 5) | IC50 [1] | IC50 [2] | IC50 (Adenosine receptor A3) | IC50 [3] | IC50 [4] | IC50 [5] | IC50 [6] | Ki [6]

CC(C)(Sc1cc(C(C)(C)C)c(O)c(C(C)(C)C)c1)Sc1cc(C(C)(C)C)c(O)c(C(C)(C)C)c1 [PROBUCOL]
Not Active: IC50 (Melanocortin receptor 5) | IC50 [1] | IC50 [2] | IC50 (Adenosine receptor A3) | IC50 [3] | IC50 [4] | IC50 [5] | IC50 [6] | Ki [6]

COBALT(II) ACETYLACETONATE
Not Active: IC50 (Melanocortin receptor 5) | Ki (Melanocortin receptor 5) | IC50 [1] | Ki [1] | IC50 [2] | Ki [2] | IC50 (Adenosine receptor A3) | Ki (Adenosine receptor A3) | IC50 [3] | Ki [3] | IC50 [4] | Ki [4] | IC50 [5] | Ki [5] | IC50 [6] | Ki [6]

INSULIN HUMAN
Not Active: IC50 (Melanocortin receptor 5) | Ki (Melanocortin receptor 5) | IC50 [1] | Ki [1] | IC50 [2] | Ki [2] | IC50 (Adenosine receptor A3) | Ki (Adenosine receptor A3) | IC50 [3] | Ki [3] | IC50 [4] | Ki [4] | IC50 [5] | Ki [5] | IC50 [6] | Ki [6]

POLYVINYL ALCOHOL
Not Active: IC50 (Melanocortin receptor 5) | Ki (Melanocortin receptor 5) | IC50 [1] | Ki [1] | IC50 [2] | Ki [2] | IC50 (Adenosine receptor A3) | Ki (Adenosine receptor A3) | IC50 [3] | Ki [3] | IC50 [4] | Ki [4] | IC50 [5] | Ki [5] | IC50 [6] | Ki [6]
